# Patent US7311878B2, “Method and apparatus for producing synergistic biocide” (Hercules Incorporated, priority 2005, dated 2007)
# Marks after values point to notes of the source that are not given here.
# Tested on: multi-species bacterial consortium
# Test: dose-challenge efficacy assay against bacterial consortium, spread plate cell enumeration
# Format: cell-based
# Conditions: for effect on cell counts of the consortium (in words) / population size of bacterial consortium, log10 colony counts: Example 1; for effect on cell counts of the consortium (in words): 0.5 mg/l total, 20 minutes exposure, pH 5 to 8; for population size of bacterial consortium, log10 colony counts: 20 minute exposure, total halogen 0.5 mg/l, average of three values; for numbers of surviving cells, Log10 transformations of the plate counts: Example 2, 20-minute contact time, 0.5 mg/l (as Cl2) active, initial approx. 2×10^5 bacteria per milliliter
# Method: The efficacies of the individual haloamines and the synergistic combination produced with the apparatus described above were determined using a consortium of microorganisms and a dose-response protocol. Concentrations of monochloramine and dichloramine reported herein are in units of milligrams per liter as measured by Cl2 analysis; the Hach DPD chlorine test (Hach Company, Loveland, Colo.) was used to measure the total available chlorine concentrations and are expressed as milligrams per liter as Cl2. The DPD assay is based on the amount of chlorine in a sample that reacts with N,N-diethyl-p-phenylenediamine oxalate. To determine the amount of monochloramine or dichloramine in a sample, an aliquot of the sample was transferred to a clean container, diluted with deionized water, as appropriate, and assayed according to the Hach DPD chlorine test. The assay measures the total amount of chlorine that can react with the indicator reagent. The reaction is measured by determining the absorbance of light at 530 nm. Therefore, for the purposes of this invention, a quantity of monochloramine or dichloramine presented in units of mg/l signifies that amount of monochloramine or dichloramine that contains the designated amount of milligrams per liter of reactive chlorine. Thus, for example, a sample treated with 1 mg/l monochloramine or dichloramine will contain a total available chlorine concentration of 1 mg/l. Similarly, a sample treated with 0.5 mg/l monochloramine and 0.5-mg/l dichloramine will contain a total available chlorine concentration of 1 mg/l.
# The materials were tested against multi-species bacterial consortium (also referred to as an artificial consortium) containing approximately equal numbers of six bacterial strains. Although the test strains are representative of organisms present in paper mill systems; the effect is not limited to these bacteria. Two of the strains were Klebsiella pneumonia (ATCC 13883) and Pseudomonas aeruginosa (ATCC 15442). The other four strains were isolated from papermill systems and have been presumptively identified as Curtobacterium flaccumfaciens, Burkholderia cepacia, Bacillus maroccanus, and Pseudomonas glathei. Each strain was grown on Tryptic Soy Agar overnight at 37° C. Sterile cotton-tipped swabs were used to aseptically transfer cells to a sterile solution of saline. Each cell suspension was prepared to a desired concentration as measured by turbidity before equal volumes of each of the cell suspensions were then combined to prepare the consortium.
# A sample of the biocide solution was aseptically collected at the end of line 11 after the apparatus had been operated for approximately 20 minutes and used in an efficacy assay. Samples of the monochloramine solution in reservoir 3 and the dichloramine solution in mixing chamber 16 were also collected to test efficacy of each active. In the assay, the bacterial consortium was prepared as described above and an appropriate quantity of the cell suspension was aseptically transferred to sterile saline with pH adjusted to selected values. The cells were then challenged with the haloamines and synergistic combinations of the haloamines. In each case, the total halogen concentration was 0.5 mg/l (as […]). In this example, in addition to untreated control, the consortium was exposed to the following treatments: (1) 0.5 mg/l of monochloramine; 0.5 mg/l dichloramine; (3) 0.25 mg/l monochloramine plus 0.25 mg/l dichloramine; and (4) 0.4 mg/l monochloramine plus 0.1 mg/l dichloramine. The consortium was exposed to the haloamines for 20 minutes before samples were removed for cell enumeration by the spread plate technique. […] The control counts presented in Table 1 are those obtained after a 20 minute exposure to saline with pH adjusted to the indicated value.
# The dose-challenge studies were carried out as previously described using a freshly prepared bacterial consortium. Sterile saline was prepared with pH adjusted to values of 5.0, 6.0, 7.0 and 8.0. […]
Compound,effect on cell counts of the consortium (in words),"population size of bacterial consortium, log10 colony counts (pH 5 saline) [log10 colony counts]","population size of bacterial consortium, log10 colony counts (pH 6 saline) [log10 colony counts]","population size of bacterial consortium, log10 colony counts (pH 7 saline) [log10 colony counts]","population size of bacterial consortium, log10 colony counts (pH 8 saline) [log10 colony counts]","numbers of surviving cells, Log10 transformations of the plate counts (pH 5 saline) [Log10]","numbers of surviving cells, Log10 transformations of the plate counts (pH 6 saline)","numbers of surviving cells, Log10 transformations of the plate counts (pH 7 saline) [Log10]","numbers of surviving cells, Log10 transformations of the plate counts (pH 8 saline) [Log10]"
"ClNCl [DCA, dichloramine]",decreased cell counts,3.50,5.16,5.01,5.19,3.56,5.16* Log10,5.07,5.24
"NCl [MCA, monochloramine]",decreased cell counts,4.93,4.94,5.06,5.36,5.03,4.84 Log10,5.13,5.41
